Laboratory results: patent US10336748B2, “Methyoxy-substituted pyrrolopyridine modulators of RORC2 and methods of use thereof” (Pfizer Inc., priority 2015, dated 2019)

Assays:
[1] = system: human Th17 cells; assay: IL-17 production from human Th17 cells; format: cell-based; details: 144 h; IL-17A in supernatant by ELISA (MSD) after 6 days, human CD4+ T cells, anti-CD3 + anti-CD28 + cytokine cocktail
Method: The activity of compound of the invention can be also be determined by an IL-17 production from human Th17 cells assay. In general, this assay measures blockade of IL-17 production, the signature cytokine of T helper 17 (Th17) cells, by compounds. Purified human CD4+ T cells are stimulated with anti-CD3+anti-CD28 and incubated with a cytokine cocktail that induce their differentiation into Th17 in the absence or presence of various concentrations of compound. After 6 days, IL-17A concentration is measured in the cell culture supernatant with an ELISA kit (MSD).
Preparation of human CD4+ T cells. CD4+ T cells were purified from buffy coats from healthy donors (obtained from Massachusetts General Hospital) by negative selection the following procedure: Mixing 25 mL of blood with 1 mL of Rosette Sep CD4+ T cell enrichment cocktail (StemCell Technologies) followed by application of a layer of 14 mL Ficoll Paque Plus (Amersham GE Healthcare) and subsequent centrifugation at 1200 g for 20 min at room temperature. The Ficoll layer was then harvested and washed with phosphate saline buffer containing 2% (v/v) fetal bovine serum and cells were resuspended with RPMI medium containing 10% (v/v) fetal bovine serum and 10% (v/v) DMSO, frozen and kept in LN2 until used.
On the first day of the assay, a vial containing 10^7 CD4+ T cells is thawed rapidly in 37° C. water bath, immediately transferred into 20 mL X-Vivo 15 medium (Lonza), is spun for 6 min at 300×g, the supernatant is discarded, and the resulting pellet is re-suspended at 10^6 cells/mL in […] fresh X-Vivo 15 medium, followed by storage overnight in a tissue culture vessel in a humidified chamber at 37° C. and 5% CO2. Serial dilutions of compounds of the invention are prepared at 10× final concentration in X-Vivo15 medium containing 3% (v/v) DMSO.
On the second day of the assay, a 384-well tissue culture plate was coated with 10 μg/mL anti-hCD3 (eBioscience) at 50 μL/well. After 2 hr at 37° C., the supernatant is discarded and the coated plates are kept in a sterile tissue culture hood.
Cytokine plus anti-CD28 cocktail is prepared by mixing 25 ng/mL hIL-6 (Peprotech), 5 ng/mL hTGFbeta1 (Peprotech), 12.5 ng/mL IL-1beta (Peprotech), 25 ng/mL hIL-21, 25 ng/mL hIL-23 (R&D Systems), and 1 ug/mL anti-hCD28 (eBioscience) in X-Vivo 15 medium. The cytokine plus anti-CD28 cocktail with CD4+ cells is prepared such that the cocktail is diluted 10-fold and cell density is 0.22×10^6/mL. The mixture is incubated 1 hr at 37° C.
90 μL (20,000 cells) dispensed per well in the anti-hCD3 coated plate prepared as noted above.
10 μL 10× compound is added per well (final DMSO=0.3%) from the compound plate that was previously prepared, followed by 6 days of incubation in a tissue culture vessel in a humidified chamber at 37° C. and 5% CO2.
On day six of the assay, production of IL-17A in 10 μL of the supernatant is determined by sandwich ELISA using 384w hIL17 MSD plates following the manufacturer's protocol. Measurement is carried out in a Sector Imager 6000 by the same manufacturer. Signal units from the instrument are converted to pg/mL using a calibration curve with known amounts of IL-17A. IC50 values of test compounds (Table 2) are determined by the non-linear regression analysis of dose response curves.

[2] = molecular target: T1, RORC2 ligand binding domain (6-His-RORC2 LBD) (Homo sapiens, UniProt P51449); assay: Co-activator recruitment by TR-FRET; format: biochemical; details: 6.3 nM RORC2 LBD, 200 nM SRC1-2 coactivator peptide, 3 hr room temperature
T1 construct: made in house; host or cells: E. coli
T1 sequence (P51449 269-508 limits assumed): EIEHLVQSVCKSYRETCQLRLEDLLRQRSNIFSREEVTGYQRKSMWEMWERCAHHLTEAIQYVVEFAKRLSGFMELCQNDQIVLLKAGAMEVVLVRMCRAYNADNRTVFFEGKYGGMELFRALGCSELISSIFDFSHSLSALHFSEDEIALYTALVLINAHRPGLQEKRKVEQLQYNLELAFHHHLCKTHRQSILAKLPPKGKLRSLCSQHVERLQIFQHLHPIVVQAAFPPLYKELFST
From the text: The activity of compound of the invention can be determined by a co-activator recruitment by TR-FRET (time-resolved fluorescence resonance energy transfer) assay. In general, the assay is based on the interaction between N-terminally Six-Histidine-tagged-RORC2 ligand binding domain (6-His-RORC2 LBD), expressed in E. coli and purified by affinity chromatography, and biotin-coactivator peptide SRC1-2 (biotin-aminohexanoic acid-[…]-NH2; SEQ ID NO: 1) containing the LXXLL consensus domain which is responsible for receptor binding. This interaction is detected by addition of Europium labeled-anti-His antibody (Ex. 337 nm, Em. 620 nm, which binds to 6His) and Streptavidin-APC (Ex. 620 nm, Em. 665 nm, which binds to biotin). When receptor and coactivator are bound to each other, upon shining light at 337 nm on the sample, the Europium emits fluorescence that excites APC due to close proximity (FRET) and this signal is measured at 665 nm. Due to the long lasting fluorescence emission of Europium, the non-specific, short-lived fluorescence is time-resolved (TR) from the fluorescence of interest. Inhibitors of the interaction of receptor and coactivator peptide are detected by a decrease in TR-FRET signal.
Specifically, in one embodiment the aforementioned assay was performed as outlined below. The assay was carried out in black polystyrene. 384-well plates in a total assay volume of 50.5 μL. The assay buffer contained 50 mM TRIS-HCL pH 7.5, 1 mM NaCl, 2 mM MgCl2, 0.5 mg/mL bovine serum albumin, and 5 mM dithiothreitol. The final concentration of reagents was 6.3 nM RORC2 LBD, 200 nM SRC1-2, 50 nM streptavidin APC, 1 nM Europium-labeled anti-His antibody, and varying concentrations of compounds such that final concentration of DMSO is 1% (v/v). The assay steps were: (1) dispensing […] compound at 100× final concentration in DMSO (test wells) or DMSO only (control wells for no inhibition); and (2) dispensing 50 μL mixture of the other assay components including receptor (test wells) or excluding receptor (control wells for maximal inhibition).
Assay mixtures were incubated are room temperature for 3 hr and read in EnVision 2100 Multilabel Reader (PerkinElmer Life Sciences) at Excitation Filter 320, Emission Europium Filter 615, Emission APC Filter 665, Dichroic Mirror D400/D630.
TR-FRET signal was determined by calculating the ratio of 665 nm by 615 nm and […] values of compounds of the invention (Table 1) were determined by the non-linear regression analysis of dose response curves.

Structure (SMILES)	IC50 [1] [nM]	IC50 [2] [nM]
COc1c(NC(=O)c2cccc(C#N)c2)cnc2c1c(C1CCN(C(=O)[C@@H](C)C(C)C)CC1)cn2C [Example 14, (S)-3-cyano-N-(3-(1-(2,3-dimethylbutanoyl)piperidin-4-yl)-4-methoxy-1-methyl-1H-pyrrolo[2,3-b]pyridin-5-yl)benzamide]	42.1	14.2
COc1c(NC(=O)c2cc(C#N)cc(CO)c2)cnc2c1c(C1CCN(C(=O)C3CCCC3)CC1)cn2C [Example 17, 3-cyano-N-(3-(1-(cyclopentanecarbonyl)piperidin-4-yl)-4-methoxy-1-methyl-1H-pyrrolo[2,3-b]pyridin-5-yl)-5-(hydroxymethyl)benzamide]	82	14.2
COc1cc(C#N)cc(C(=O)Nc2cnc3c(c(C4CCN(C(=O)C[C@@H](O)C(F)(F)F)CC4)cn3C)c2OC)c1 [Example 9, (R)-3-cyano-5-methoxy-N-(4-methoxy-1-methyl-3-(1-(4,4,4-trifluoro-3-hydroxybutanoyl)piperidin-4-yl)-1H-pyrrolo[2,3-b]pyridin-5-yl)benzamide]	77.1	56.2
COc1c(NC(=O)c2cccc(C#N)c2)cnc2c1c(C1CCN(C(=O)[C@@H](C)C(C)(C)C)CC1)cn2C [Example 15, (S)-3-cyano-N-(4-methoxy-1-methyl-3-(1-(2,3,3-trimethylbutanoyl)piperidin-4-yl)-1H-pyrrolo[2,3-b]pyridin-5-yl)benzamide]	23.5	8.6
COc1cc(C#N)cc(C(=O)Nc2cnc3c(c(C4CCN(C(=O)C5CCCC5)CC4)cn3C)c2OC)c1 [Example 12, 3-cyano-N-(3-(1-(cyclopentanecarbonyl)piperidin-4-yl)-4-methoxy-1-methyl-1H-pyrrolo[2,3-b]pyridin-5-yl)-5-methoxybenzamide]	59.8	20.2
COc1c(NC(=O)c2cccc(C#N)c2)cnc2c1c(C1CCN(C(=O)C3CCCC3)CC1)cn2C [Example 8, 3-cyano-N-(3-(1-(cyclopentanecarbonyl)piperidin-4-yl)-4-methoxy-1-methyl-1H-pyrrolo[2,3-b]pyridin-5-yl)benzamide]	29.8	11.8
COc1ccc(C(=O)Nc2cnc3c(c(C4CCN(C(=O)C(C)C)CC4)cn3C)c2OC)cc1C#N [Example 2, 3-cyano-N-(3-(1-isobutyrylpiperidin-4-yl)-4-methoxy-1-methyl-1H-pyrrolo[2,3-b]pyridin-5-yl)-4-methoxybenzamide]	17.8	38.7
COc1c(NC(=O)c2cccc(C#N)c2)cnc2c1c(C1CCN(C(=O)[C@H](C)C(C)C)CC1)cn2C [Example 6, (R)-3-cyano-N-(3-(1-(2,3-dimethylbutanoyl)piperidin-4-yl)-4-methoxy-1-methyl-1H-pyrrolo[2,3-b]pyridin-5-yl)benzamide]	15.7	15.2
COc1c(NC(=O)c2cccc(C#N)c2)cnc2c1c(C1CCN(C(=O)c3cccc4c3CCC4)CC1)cn2C [Example 7, 3-cyano-N-(3-(1-(2,3-dihydro-1H-indene-4-carbonyl)piperidin-4-yl)-4-methoxy-1-methyl-1H-pyrrolo[2,3-b]pyridin-5-yl)benzamide]	28.3	4.7

More lines, in order of falling IC50 [1], values ahead:

IC50 [1] [nM]	IC50 [2] [nM]	Structure (SMILES)
15.6	8.5	COc1c(NC(=O)c2cccc(C#N)c2)cnc2c1c([C@@H]1CCN(C(=O)C3CC(C)(C)C3)C(C)(C)C1)cn2C [Example 33, (R)-3-cyano-N-(3-(1-(3,3-dimethylcyclobutane-1-carbonyl)-2,2-dimethylpiperidin-4-yl)-4-methoxy-1-methyl-1H-pyrrolo[2,3-b]pyridin-5-yl)benzamide]
9.5	15.4	COc1ccc(C(=O)Nc2cnc3c(c(C4CCN(C(=O)C5CCCCC5)CC4)cn3C)c2OC)cc1C#N [Example 13, 3-cyano-N-(3-(1-(cyclohexanecarbonyl)piperidin-4-yl)-4-methoxy-1-methyl-1H-pyrrolo[2,3-b]pyridin-5-yl)-4-methoxybenzamide]
8.9	8.1	COc1ccc(C(=O)Nc2cnc3c(c([C@@H]4CCN(C(=O)C(C)C)C(C)(C)C4)cn3C)c2OC)cc1C#N [Example 29, (R)-3-cyano-N-(3-(1-isobutyryl-2,2-dimethylpiperidin-4-yl)-4-methoxy-1-methyl-1H-pyrrolo[2,3-b]pyridin-5-yl)-4-methoxybenzamide]
7.2	5.7	COc1c(NC(=O)c2cccc(C#N)c2)cnc2c1c([C@@H]1CCN(C(=O)C3CCCC3)C(C)(C)C1)cn2C [Example 31, (R)-3-cyano-N-(3-(1-(cyclopentanecarbonyl)-2,2-dimethylpiperidin-4-yl)-4-methoxy-1-methyl-1H-pyrrolo[2,3-b]pyridin-5-yl)benzamide]
6.5	7.1	COc1c(NC(=O)c2cccc(C#N)c2)cnc2c1c(C1CCN(C(=O)[C@H](C)C3CCCC3)CC1)cn2C [Example 18, (R)-3-cyano-N-(3-(1-(2-cyclopentylpropanoyl)piperidin-4-yl)-4-methoxy-1-methyl-1H-pyrrolo[2,3-b]pyridin-5-yl)benzamide]
6.4	4.6	COc1ccc(C(=O)Nc2cnc3c(c(C4CCN(C(=O)[C@@H](C)C(C)(C)C)CC4)cn3C)c2OC)cc1C#N [Example 3, (S)-3-cyano-4-methoxy-N-(4-methoxy-1-methyl-3-(1-(2,3,3-trimethylbutanoyl)piperidin-4-yl)-1H-pyrrolo[2,3-b]pyridin-5-yl)benzamide]
